# Assay results: publication PMC6171417, “Carbonic anhydrase inhibition with a series of novel benzenesulfonamide-triazole conjugates” (Journal of Enzyme Inhibition and Medicinal Chemistry, 2018)
# Key:
# Assay in all cases: cells
# Parameters in all cases: species or system NCI human tumour cell line panel; NCI one-dose anti-proliferative screen, human tumour cell line panel, growth inhibition percent (GI%)
# LOX IMVI = conditions: Homo sapiens, LOX IMVI; growth inhibition (GI%), single dose
# Description: (§1) Ten of the newly synthesised 1,2,3-triazolo benzenesulfonamide derivatives were selected by NCI (Bethesda, MD) for evaluating their anti-proliferative activity. The selected compounds were subjected to a primary in vitro one-dose ([…]) anti-proliferative assay against 57 human tumour cell lines following the previously reported method[30] and their obtained growth inhibition percent (GI%) are presented in Table 2. A subset of ten triazolo-benzenesulfonamides (3, 5, 6, 7, 9, 11, 16–18, and 20) were selected and subjected to an in vitro anti-proliferative screening against a panel of 57 cancer cell lines at NCI at an initial high dose ([…]). The human cell lines used were derived from nine cancer types: leukaemia, lung, colon, CNS, melanoma, ovarian, renal, prostate and breast cancers.
# T-47D = conditions: Homo sapiens, T47D; growth inhibition (GI%), single dose
# Description: as §1
# HS 578T = conditions: Homo sapiens, Hs-578T; growth inhibition (GI%), single dose
# Description: as §1
# SN12C = conditions: Homo sapiens, SN12C; growth inhibition (GI%), single dose
# Description: as §1
# UO-31 = conditions: Homo sapiens, UO-31; growth inhibition (GI%), single dose
# Description: as §1
# HOP-62 = conditions: Homo sapiens, HOP-62; growth inhibition (GI%), single dose
# Description: as §1
# UACC-62 = conditions: Homo sapiens, UACC-62; growth inhibition (GI%), single dose
# Description: as §1
# HOP-92 = conditions: Homo sapiens, HOP-92; growth inhibition (GI%), single dose
# Description: as §1
# A498 = conditions: Homo sapiens, A498; growth inhibition (GI%), single dose
# Description: as §1
# U251 = conditions: Homo sapiens, U-251; growth inhibition (GI%), single dose
# Description: as §1
# SR = conditions: Homo sapiens, SR; growth inhibition (GI%), single dose
# Description: as §1
# NCI-H522 = conditions: Homo sapiens, NCI-H522; growth inhibition (GI%), single dose
# Description: as §1
# MCF7 = conditions: Homo sapiens, MCF7; growth inhibition (GI%), single dose
# Description: as §1
# PC-3 = conditions: Homo sapiens, PC-3; growth inhibition (GI%), single dose
# Description: as §1
# CCRF-CEM = conditions: Homo sapiens, CCRF-CEM; growth inhibition (GI%), single dose
# Description: as §1
# RPMI-8226 = conditions: Homo sapiens, RPMI-8226; growth inhibition (GI%), single dose
# Description: as §1
# NCI-H226 = conditions: Homo sapiens, NCI-H226; growth inhibition (GI%), single dose
# Description: as §1
# UACC-257 = conditions: Homo sapiens, UACC-257; growth inhibition (GI%), single dose
# Description: as §1
# NCI-H322M = conditions: Homo sapiens, NCI-H322M; growth inhibition (GI%), single dose
# Description: as §1
# NCI-H23 = conditions: Homo sapiens, NCI-H23; growth inhibition (GI%), single dose
# Description: as §1
Compound,inhibition at 10 µM (LOX IMVI) [%],inhibition at 10 µM (T-47D) [%],inhibition at 10 µM (HS 578T) [%],inhibition at 10 µM (SN12C) [%],inhibition at 10 µM (UO-31) [%],inhibition at 10 µM (HOP-62) [%],inhibition at 10 µM (UACC-62) [%],inhibition at 10 µM (HOP-92) [%],inhibition at 10 µM (A498) [%],inhibition at 10 µM (U251) [%],inhibition at 10 µM (SR) [%],inhibition at 10 µM (NCI-H522) [%],inhibition at 10 µM (MCF7) [%],inhibition at 10 µM (PC-3) [%],inhibition at 10 µM (CCRF-CEM) [%],inhibition at 10 µM (RPMI-8226) [%],inhibition at 10 µM (NCI-H226) [%],inhibition at 10 µM (UACC-257) [%],inhibition at 10 µM (NCI-H322M) [%],inhibition at 10 µM (NCI-H23) [%]
"N#Cc1nnn(-c2ccc(S(N)(=O)=O)cc2)c1N [compound 3, 3]",6.1,5.1,5.9,1.1,14.5,8,5.5,8.2,13.6,0.6,3.5,9.7,5.5,8.3,15.3,8.5,5.2,10.2,0,–
"N#Cc1nnn(-c2ccc(S(N)(=O)=O)cc2)c1NCC(=O)c1ccccc1 [compound 7, 7]",5.9,4.6,1.7,2.9,21.1,8.3,4,13.5,–,6.4,9.3,16.1,6.7,15.9,16.4,12.5,11.8,11.7,8.8,2.1
"N#Cc1nnn(-c2ccc(S(N)(=O)=O)cc2)c1/N=C/c1ccc(Cl)cc1 [compound 9, 9]",–,11.5,–,–,0.3,0.1,6,12.8,8.6,4.7,15.8,10.5,4.7,9.3,15.9,12.3,4.8,2.3,–,–
"N#Cc1nnn(-c2ccc(S(N)(=O)=O)cc2)c1NS(=O)(=O)c1ccccc1 [compound 11, N-(4-cyano-1-(4-sulfamoylphenyl)-1H-1,2,3-triazol-5-yl)benzenesulfonamide]",–,9.6,–,1.6,13.4,4.2,5.9,4.2,–,10.9,9.2,10.3,1.7,9.7,6.7,7.1,–,8.1,2.6,4.1
"N#Cc1c(-c2ccc(Cl)cc2)nc2c(nnn2-c2ccc(S(N)(=O)=O)cc2)c1N [compound 16, 4-(7-amino-5-(4-chlorophenyl)-6-cyano-3H-[1,2,3]triazolo[4,5-b]pyridin-3-yl)benzenesulfonamide]",20.4,5.6,12.1,8.9,25,7.3,15.5,35.4,17.6,2.7,16.8,9.8,13.6,22.2,16.4,8.4,9.8,6.9,–,11.2
"Nc1nc(=S)[nH]c2c1nnn2-c1ccc(S(N)(=O)=O)cc1 [compound 18, 4-(7-amino-5-thioxo-4,5-dihydro-3H-[1,2,3]triazolo[4,5-d]pyrimidin-3-yl)benzenesulfonamide]",7.5,5.8,9.8,1.2,13.8,4.8,5.6,10.6,5.5,–,1.7,13.7,2.9,7.8,17.8,12.3,9.8,6.1,2.2,4.7
"CCn1c(=S)[nH]c2c(nnn2-c2ccc(S(N)(=O)=O)cc2)c1=N [compound 20, 4-(6-ethyl-7-imino-5-thioxo-4,5,6,7-tetrahydro-3H-[1,2,3]triazolo[4,5-d]pyrimidin-3-yl)benzenesulfonamide]",4.6,–,2.5,0.9,7.3,–,4.3,18,6.2,1.9,7.5,7.8,4.9,9.7,20.9,12.1,6.9,6.2,3.2,9.4
